According to US11840686B2, “Modulation of prekallikrein (PKK) expression” (Ionis Pharmaceuticals, Inc., priority 2013, dated 2023):
Strand notation (5' to 3'): a small letter for the sugar, then the base; units joined by * are phosphorothioate-linked, units joined directly phosphodiester-linked; [ ] holds rarer units or linkages, { } end groups; capitals alone tell only the bases. e = 2'-O-(2-methoxyethyl) (MOE); k = constrained ethyl (cEt); [5mC] = 5-methylcytosine; d = 2'-deoxy (DNA)

tested on: human PKK mRNA; assay: Antisense inhibition of human PKK mRNA in HepaRG cells, 1,000 nM, MOE/deoxy/cEt oligonucleotides (Example 3); type: cell-based; details: HepaRG cells, electroporation with 1,000 nM antisense oligonucleotide, approx. 24 hours, PKK mRNA by RT-PCR (RTS3454), relative to untreated control cells; Table 26 experiment
Summary of the method: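 Readout is percent PKK mRNA reduction against untreated controls, by real-time PCR (RTS3454) adjusted for total RNA via RIBOGREEN. Oligonucleotides, phosphorothioate gapmers of 16 nucleosides with cEt, MOE and deoxy sugars, were delivered at 1,000 nM by electroporation to 20,000 HepaRG cells/well for roughly 24 h.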

Compared with “548283 (antisense eG*eG*k[5mC]*dT*dT*dA*dT*dG*d[5mC]*dT*d[5mC]*d[5mC]*dT*kT*k[5mC]*eT) [compound 548283]”, “548284 (antisense e[5mC]*e[5mC]*k[5mC]*d[5mC]*d[5mC]*dT*dG*dT*dA*dG*dT*dT*dG*kG*k[5mC]*eT) [compound 548284]” is lower in “% inhibition” value: 56% for the first, 35% for the second.

Going from “548285 (antisense eG*e[5mC]*kT*dT*dA*d[5mC]*dT*dT*dA*d[5mC]*dA*dT*d[5mC]*k[5mC]*k[5mC]*eT) [compound 548285]” to “548286 (antisense eG*eG*kG*dA*d[5mC]*dT*dA*d[5mC]*dA*dT*dG*d[5mC]*dA*kA*kT*eA) [compound 548286]”, the “% inhibition” value falls from 52% to 47%.

First: 548287 (eG*eT*k[5mC]*dA*dA*dA*dG*dA*dG*dT*dG*dT*d[5mC]*k[5mC]*kA*e[5mC]; antisense) [compound 548287]
Second: 548288 (eG*eA*kA*dT*dA*dG*d[5mC]*dA*dA*dG*d[5mC]*dT*d[5mC]*k[5mC]*kA*eA; antisense) [compound 548288]
The “% inhibition” value of the first is lower: 38% for the first, 64% for the second.

Going from “548289 (e[5mC]*eA*kT*dG*dA*dT*dA*d[5mC]*d[5mC]*dA*d[5mC]*dA*d[5mC]*k[5mC]*kA*e[5mC]; antisense) [compound 548289]” to “548290 (eG*eA*kG*d[5mC]*dA*d[5mC]*dT*d[5mC]*dT*dT*dA*dT*dT*kA*kG*e[5mC]; antisense) [compound 548290]”, the “% inhibition” value rises from 28% to 31%.

Going from “548291 (e[5mC]*e[5mC]*kT*dG*dT*dT*dA*dG*dA*dG*dT*dT*dG*kG*k[5mC]*e[5mC]; antisense) [compound 548291]” to “548292 (eA*eG*kG*dA*d[5mC]*dA*d[5mC]*dT*dG*dT*dT*dT*d[5mC]*k[5mC]*kA*eG; antisense) [compound 548292]”, the “% inhibition” value rises from 35% to 38%.

Going from “548293 (eG*eT*k[5mC]*dA*d[5mC]*d[5mC]*dA*dG*dA*dA*d[5mC]*d[5mC]*dA*k[5mC]*kA*eT; antisense) [compound 548293]” to “548294 (eG*eT*kG*dT*dG*d[5mC]*dA*d[5mC]*dT*dT*dT*d[5mC]*dT*kG*kG*eT; antisense) [compound 548294]”, the “% inhibition” value falls from 44% to 33%.

Compared with “548295 (e[5mC]*eT*k[5mC]*dT*dG*dA*dT*dT*dG*dG*dG*dT*d[5mC]*kA*k[5mC]*e[5mC]; antisense) [compound 548295]”, “548296 (eA*e[5mC]*k[5mC]*dA*dA*d[5mC]*dA*dA*d[5mC]*dT*d[5mC]*dA*dG*kG*k[5mC]*e[5mC]; antisense) [compound 548296]” is higher in “% inhibition” value: 26% for the first, 34% for the second.

Compared with “548297 (eA*e[5mC]*kT*d[5mC]*dT*d[5mC]*dA*dA*dG*d[5mC]*dT*d[5mC]*d[5mC]*kA*k[5mC]*eG; antisense) [compound 548297]”, “548298 (eG*eG*kA*d[5mC]*dA*dA*dT*dA*dT*dG*dT*d[5mC]*dT*k[5mC]*k[5mC]*eT; antisense) [compound 548298]” is lower in “% inhibition” value: 32% for the first, 0% for the second.

Compared with “548299 (e[5mC]*eA*kT*dT*dG*dT*dG*d[5mC]*dT*d[5mC]*dA*dA*d[5mC]*kT*kG*eA; antisense) [compound 548299]”, “548300 (eG*e[5mC]*k[5mC]*d[5mC]*dA*dT*dG*dG*dT*dG*dA*dA*dT*k[5mC]*kT*eG; antisense) [compound 548300]” is higher in “% inhibition” value: 35% for the first, 53% for the second.

Going from “548301 (e[5mC]*e[5mC]*kT*dA*dG*dT*dA*d[5mC]*dA*dA*dA*dG*dT*kG*kG*e[5mC]; antisense) [compound 548301]” to “548302 (eG*e[5mC]*k[5mC]*dA*dT*dT*dT*dT*dA*dT*d[5mC]*d[5mC]*d[5mC]*kT*kG*eA; antisense) [compound 548302]”, the “% inhibition” value rises from 65% to 71%.

“548303 (eG*eG*kG*d[5mC]*d[5mC]*d[5mC]*d[5mC]*d[5mC]*dA*dT*dG*dT*d[5mC]*k[5mC]*kA*eT; antisense) [compound 548303]” was tested, and the “% inhibition” value was 0%.

same assay, conditions: Table 27; HepaRG cells, 1,000 nM antisense oligonucleotide; human PKK mRNA

Going from “548305 (eG*eT*kT*d[5mC]*dT*dT*dG*d[5mC]*dT*dT*dA*dT*d[5mC]*k[5mC]*kT*e[5mC]; antisense) [compound 548305]” to “548306 (eA*eT*kG*dT*dG*dA*d[5mC]*dA*dG*dT*d[5mC]*dA*dG*kG*kG*eA; antisense) [compound 548306]”, the “% inhibition” value falls from 55% to 8%.

First: 548307 (eT*eT*k[5mC]*dT*dG*d[5mC]*dA*dA*d[5mC]*dT*dG*dA*dG*k[5mC]*k[5mC]*eT; antisense) [compound 548307]
Second: 548308 (eA*eA*kT*dG*dG*d[5mC]*dA*dG*dG*dT*d[5mC]*d[5mC]*dT*kG*kG*e[5mC]; antisense) [compound 548308]
The “% inhibition” value of the first is lower: 6% for the first, 9% for the second.

Compared with “548309 (eA*eG*kA*d[5mC]*dA*dG*dT*dT*dG*dG*dT*dG*dG*kT*kT*eT; antisense) [compound 548309]”, “548310 (eG*eA*kG*dG*dA*dG*dT*dT*dG*dG*dT*dT*dT*kA*kG*eT; antisense) [compound 548310]” is lower in “% inhibition” value: 41% for the first, 0% for the second.

Compared with “548311 (eT*eG*kA*d[5mC]*d[5mC]*dA*d[5mC]*d[5mC]*dT*d[5mC]*dT*d[5mC]*dG*kG*kG*eT; antisense) [compound 548311]”, “548312 (eA*eT*kT*dT*dG*dG*d[5mC]*d[5mC]*d[5mC]*dT*dG*dA*dG*k[5mC]*k[5mC]*e[5mC]; antisense) [compound 548312]” is lower in “% inhibition” value: 10% for the first, 0% for the second.

Going from “548313 (eG*e[5mC]*k[5mC]*dT*dT*dT*dG*dA*dG*dG*dG*dA*dG*kT*kG*eG; antisense) [compound 548313]” to “548314 (eA*e[5mC]*kA*dA*d[5mC]*d[5mC]*dT*dG*dT*d[5mC]*d[5mC]*dA*dT*kT*k[5mC]*e[5mC]; antisense) [compound 548314]”, the “% inhibition” value rises from 35% to 43%.

Going from “548315 (eG*eT*kT*dG*dT*d[5mC]*dA*dA*d[5mC]*dT*dG*dG*dG*kA*k[5mC]*e[5mC]; antisense) [compound 548315]” to “548316 (e[5mC]*eT*kG*dT*dT*d[5mC]*dA*dG*dG*dT*dA*dG*d[5mC]*kA*k[5mC]*eA; antisense) [compound 548316]”, the “% inhibition” value rises from 14% to 64%.

Going from “548317 (e[5mC]*e[5mC]*kG*dG*dG*dA*dA*dA*dG*dA*d[5mC]*dT*dG*kT*k[5mC]*eT; antisense) [compound 548317]” to “548318 (eA*e[5mC]*kT*dG*d[5mC]*dA*d[5mC]*d[5mC]*d[5mC]*d[5mC]*dA*d[5mC]*dA*kT*kA*eT; antisense) [compound 548318]”, the “% inhibition” value falls from 42% to 18%.

Compared with “548319 (e[5mC]*e[5mC]*kT*d[5mC]*dA*dT*d[5mC]*dT*d[5mC]*dA*dG*dT*dA*kT*kG*eA; antisense) [compound 548319]”, “548320 (eG*e[5mC]*kA*d[5mC]*dA*d[5mC]*dA*dG*dA*d[5mC]*dT*dT*dG*k[5mC]*k[5mC]*e[5mC]; antisense) [compound 548320]” is lower in “% inhibition” value: 26% for the first, 0% for the second.

“548321 (e[5mC]*eT*kG*d[5mC]*dA*dT*d[5mC]*dT*dG*dG*dA*d[5mC]*dT*kA*kT*eG; antisense) [compound 548321]” and “548322 (eA*eG*kG*dG*dA*dA*dA*dT*dT*dA*dG*dA*dG*kG*k[5mC]*eA; antisense) [compound 548322]” are the same in “% inhibition” value: 38% for the first, 38% for the second.

First: 548323 (e[5mC]*eT*kG*dT*dT*dG*d[5mC]*d[5mC]*dT*dG*dA*d[5mC]*dA*kT*kG*e[5mC]; antisense) [compound 548323]
Second: 548324 (eA*e[5mC]*kA*dT*dA*dA*dA*dT*dT*d[5mC]*d[5mC]*d[5mC]*d[5mC]*kA*k[5mC]*eA; antisense) [compound 548324]
The “% inhibition” value of the first is higher: 43% for the first, 29% for the second.

“548325 (e[5mC]*e[5mC]*k[5mC]*dA*d[5mC]*dT*dG*dA*d[5mC]*dT*dG*dA*d[5mC]*kT*kA*e[5mC]; antisense) [compound 548325]” and “548326 (eT*e[5mC]*k[5mC]*dT*dG*dT*dG*dA*d[5mC]*dA*dG*dA*dA*k[5mC]*k[5mC]*eA; antisense) [compound 548326]” are the same in “% inhibition” value: 27% for the first, 27% for the second.

Going from “548327 (e[5mC]*eT*kA*d[5mC]*dA*d[5mC]*d[5mC]*dT*dT*dT*d[5mC]*dT*dG*k[5mC]*kA*e[5mC]; antisense) [compound 548327]” to “548328 (antisense eG*eG*kT*d[5mC]*d[5mC]*dT*dT*dG*dA*dA*d[5mC]*d[5mC]*d[5mC]*k[5mC]*kG*eT) [compound 548328]”, the “% inhibition” value rises from 6% to 68%.

Compared with “548329 (antisense eA*eG*k[5mC]*dA*dG*dA*dT*d[5mC]*dT*dG*dG*dG*dT*kT*kG*eT) [compound 548329]”, “548330 (antisense eG*eA*k[5mC]*dT*dA*dG*d[5mC]*dT*dT*d[5mC]*dT*dA*d[5mC]*kT*kA*e[5mC]) [compound 548330]” is lower in “% inhibition” value: 59% for the first, 34% for the second.

First: 548331 (antisense eA*e[5mC]*kA*dA*dT*d[5mC]*d[5mC]*d[5mC]*dT*dT*dA*dG*d[5mC]*k[5mC]*k[5mC]*eA) [compound 548331]
Second: 548332 (antisense eG*eA*kT*dG*dA*dA*dA*dT*dG*dT*dG*d[5mC]*dA*k[5mC]*k[5mC]*eT) [compound 548332]
The “% inhibition” value of the first is higher: 73% for the first, 46% for the second.

Compared with “548333 (antisense eG*eA*k[5mC]*dT*dG*dT*dG*d[5mC]*dT*dA*dT*d[5mC]*d[5mC]*kG*k[5mC]*eT) [compound 548333]”, “548334 (antisense eG*e[5mC]*kT*d[5mC]*dA*d[5mC]*dT*dA*dT*dA*dG*dG*d[5mC]*k[5mC]*k[5mC]*e[5mC]) [compound 548334]” is higher in “% inhibition” value: 58% for the first, 69% for the second.

First: 548335 (antisense eT*eA*kG*d[5mC]*dA*dT*d[5mC]*dA*dT*dG*d[5mC]*d[5mC]*dA*k[5mC]*kA*eG) [compound 548335]
Second: 548336 (antisense eG*e[5mC]*kA*d[5mC]*dA*dT*dT*dA*dG*dG*dA*dG*dG*kT*kA*eG) [compound 548336]
The “% inhibition” value of the first is higher: 51% for the first, 1% for the second.
